# pIC50: −log10 of the molar value.
# Tests used:
# [1] = target: T1, P2X7 receptor (Homo sapiens, UniProt Q99572); assay: P2X7 receptor antagonist test: bbATP-induced ethidium bromide fluorescence in THP-1 cells; assay type: cell-based; conditions: 10^-5M bbATP agonist, 10^-4M ethidium bromide, 37° C. one hour, negative log of concentration reducing bbATP agonist activity by 50%
# T1 construct: 200 μl of a suspension of THP-1 cells; endogenous in cells; host or cells: THP-1 cells
# T1 sequence (Q99572 1-595): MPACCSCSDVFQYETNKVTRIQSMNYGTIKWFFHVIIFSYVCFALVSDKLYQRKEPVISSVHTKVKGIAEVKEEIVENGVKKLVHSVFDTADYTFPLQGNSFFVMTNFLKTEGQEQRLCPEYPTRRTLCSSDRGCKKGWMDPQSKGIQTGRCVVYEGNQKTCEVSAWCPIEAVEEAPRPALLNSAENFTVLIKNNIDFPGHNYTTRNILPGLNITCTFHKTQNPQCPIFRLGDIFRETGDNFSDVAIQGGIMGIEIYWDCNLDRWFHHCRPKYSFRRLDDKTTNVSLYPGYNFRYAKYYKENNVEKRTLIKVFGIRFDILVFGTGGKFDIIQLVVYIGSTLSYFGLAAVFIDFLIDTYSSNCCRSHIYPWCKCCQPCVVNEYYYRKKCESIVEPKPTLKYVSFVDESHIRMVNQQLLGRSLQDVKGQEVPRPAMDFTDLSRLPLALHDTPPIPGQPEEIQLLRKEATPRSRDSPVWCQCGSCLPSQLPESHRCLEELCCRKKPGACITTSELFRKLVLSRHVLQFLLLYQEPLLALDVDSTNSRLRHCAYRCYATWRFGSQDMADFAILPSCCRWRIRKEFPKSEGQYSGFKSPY
# Experimental: Consequently, when the receptor is activated using bbATP in the presence of ethidium bromide (a fluorescent DNA probe), an increase in the fluorescence of intracellular DNA-bound ethidium bromide is observed. The increase in fluorescence can be used as a measure of P2X7 receptor activation and therefore to quantify the effect of a compound on the P2X7 receptor.
# In this manner, each of the title compounds of the Examples was tested for antagonist activity at the P2X7 receptor. […] The plate was covered with a plastics sheet and incubated at 37° C. for one hour. The plate was then read in a Perkin-Elmer fluorescent plate reader, excitation 520 nm, emission 595 nm, slit widths: Ex 15 nm, Em 20 nm. For the purposes of comparison, bbATP (a P2X7 receptor agonist) and pyridoxal 5-phosphate (a P2X7 receptor antagonist) were used separately in the test as controls. From the readings obtained, a pIC50 figure was calculated for each test compound, this figure being the negative logarithm of the concentration of test compound necessary to reduce the bbATP agonist activity by 50%.
structure (smiles),measurement,setting,value
"O=C(O)c1ccc(-c2ccc(Cl)c(C(=O)NCC34CC5CC(CC(C5)C3)C4)c2)cc1 [Example 1, 4′-Chloro-3′-[[(tricyclo[3.3.1.1^3,7]dec-1-ylmethyl)amino]carbonyl]-[1,1′-biphenyl]-4-carboxylic acid]",pIC50,[1],6.50
"O=C(O)c1cc(C(F)(F)F)cc(-c2ccc(Cl)c(C(=O)NCC34CC5CC(CC(C5)C3)C4)c2)n1 [Example 72, 6-[4-Chloro-3-[[(tricyclo[3.3.1.1^3,7]dec-1-ylmethyl)amino]carbonyl]phenyl]-4-(trifluoromethyl)-2-pyridinecarboxylic acid]",melting point,,220 to 225 °C
"CC(=O)Nc1ccc(-c2ccc(Cl)c(C(=O)NCC34CC5CC(CC(C5)C3)C4)c2)c(C)n1 [Example 73, 5-[6-(Acetylamino)-2-methyl-3-pyridinyl]-2-chloro-N-(tricyclo[3.3.1.1^3,7]dec-1-ylmethyl)-benzamide]",melting point,,172 to 177 °C
